The values that follow are results of earlier work, collected in US11690800B2, “Non-irritating, non-blurring, photostable ophthalmic sunscreen composition” (A. EBBIE SOROUDI, M.D., M.S., A PROFESSIONAL MEDICAL …, priority 2014, dated 2023).

The conditions of data set [1]: oil phase and water phase of a sunscreen.
For data set [2] the following is noted: formulated into a dermatologic sunscreen.

Take `CC(C)(C)CC(C)(C)c1cc(Cc2cc(C(C)(C)CC(C)(C)C)cc(-n3nc4ccccc4n3)c2O)c(O)c(-n2nc3ccccc3n2)c1` [Bisoctrizole, 2,2′-methanediylbis[6-(2H-benzotriazol-2-yl)-4-(2,4,4-trimethylpentan-2-yl)phenol]]: the “dissolution in oil or water phase” value in data set [1] is on record as “dissolves poorly in both”. The skin penetration result in data set [2] is given as “minimal skin penetration”.
